Test results published in patent US7214766B2 (priority 1998, dated 2007).
Read-outs that look alike come from different tables or passages of the source. No end group written: not given here.

Experiments:
[1] = target: T1, Chymotrypsin (Bos taurus, UniProt P00766); assay: Inhibition of protease digestion of fluorescent labeled casein: chymotrypsin; assay type: biochemical; details: for Chymotrypsin Activity (Fluorescence Units) Mean: no-peptide control 375
T1 construct: purchased
Experimental: (§1) The ability of Rev4 to inhibit four different classes of proteases was tested using fluorescent labeled casein as substrate under the following conditions:
(§2) Each protease was incubated with substrate (5 μg/mL fluorescent labeled casein; Molecular Probes Inc., Eugene, Oreg.) and peptide in a total volume of 200 μL in a 96-well microtiter plate. Before use, papain was activated with cysteine (Arnon, 1970, Methods in Enzymology 19:226–44). After incubation at room temperature for one hour, fluorescence due to casein digestion was measured in a Luminescence Spectrometer (LS50B, Perkin Elmer Ltd., England) with an excitation wavelength of 505 nm and an emission wavelength of 513 nm. The blank control contained the substrate, buffer and peptide but lacked the protease.
The peptides described in EXAMPLE 12 were tested for their effects on the action of chymotrypsin on casein using the methods described in EXAMPLE 10.

[2] = test system: Peronospora tabacina; assay: Tobacco blue mold spore germination assay; assay type: cell-based; details: for % Germination (mean +/− sem): final concentration of 2 μg/mL, control 76.6 +/− 11.2; for % Control: germination as % of no-peptide control, 2 μg/mL; for antifungal activity (in words): refers to EXAMPLE 12
Experimental: Tobacco blue mold (Peronospora tabacina) was used to compare the antifungal activity of Rev4 with that of MYP30. Spores of Peronospora tabacina were harvested from infected tobacco leaf with sterile water and washed three times. The spore suspension was diluted to 2,000 spores per mL. Peptide solution (2 μL) was added to spore suspension (48 μL) in a 96-well microtiter plate. After incubation in the dark at room temperature for 24 hours, the number of germinated spores was determined microscopically.
The peptides described as SEQ. ID Nos. 4, 5, 6, 7 and 8 in Examples 1, 3, 4, 5 and 6 were tested for antifungal activity as described in Example 11.

[3] = test system: Verticillium dahliae racel; assay: Minimum concentration to completely inhibit spore germination, Verticillium; assay type: cell-based; details: 5,000 spores per mL, triplicate
Source text: (§3) The antifungal activity of Rev4 and related peptides was also compared using two tomato pathogens, Verticillium dahliae racel and Alternaria alternata f.sp. lycopersici. Spores were harvested from pure cultures grown on V8 medium, diluted to 5,000 spores per mL, and tested against dilution series of peptides in 96-well plates as described in U.S. Pat. No. 5,424,395.

[4] = test system: Alternaria alternata f.sp. lycopersici; assay: Minimum concentration to completely inhibit spore germination, Alternaria; assay type: cell-based; details: 5,000 spores per mL, triplicate
Source text: as §3

[5] = Stability of peptides to proteases in whole cell extract (WCE), HPLC; assay type: in vitro ADME, Kentucky 14 tobacco; details: other tissue homogenate, peptide alone, read-out: % Peptide Remaining Intact after 1 Hr.
Experimental: (§4) Whole cell extract (WCE) was prepared by grinding one gram of Kentucky 14 tobacco leaf tissue in liquid nitrogen, followed by extraction with 3 mL of 100 mM Tris-HCl buffer, pH 7.5, 50 mM NaCl. The mixture was clarified by spinning in a microcentrifuge (14,000 r.p.m., 5 minutes). The supernatant (WCE) was kept frozen as aliquots at −80° C. until required for an assay. Fifty micrograms of each peptide was incubated with different amounts of WCE in 50 mM Tris-HCl buffer, pH 7.5, total volume 50 microliters, for one hour at 37° C. The reaction was stopped by adding 1% trifluoroacetic acid (TFA). A sample of the reaction mixture (20 μL) was injected onto a Vydac C4 column (4.6×250 mm) in a Waters HPLC system with 515 pumps, 486 detector and Millenium software. The sample was eluted with a gradient of 0.1% TFA in water to 60% acetonitrile in 0.1% TFA. The area of the peak corresponding to the undigested peptide was integrated and compared with the equivalent peak from a 0% WCE control.
(§5) Assays for WCE protease degradation were performed as described in Example 8 except that one of the samples represented Magainin 2 that was mixed with Rev4 before the addition of WCE. The amounts of Magainin 2 and Rev4 remaining in the mixture were determined by HPLC as described for Examples 7 and 8.

[6] = test system: proteases present in whole cell extract (WCE); assay: as above; assay type: in vitro ADME, Kentucky 14 tobacco; details: peptide alone
Experimental: as §4, §5

[7] = test system: proteases present in whole cell extract (WCE); assay: Protection of Magainin 2 from degradation by WCE (Magainin 2 mixed with Rev4); assay type: in vitro ADME, Kentucky 14 tobacco; details: in Rev4 + Magainin 2 Mix
Experimental: as §4, §5

[8] = target: T2, Papain (Carica papaya, UniProt P00784); assay: Inhibition of protease digestion of fluorescent labeled casein: papain; assay type: biochemical; details: pH 6.2, papain 0.01 mg/mL, pH6.2, read-out: % Inhibition of Proteolysis
T2 construct: purchased
T2 sequence (P00784 134-345): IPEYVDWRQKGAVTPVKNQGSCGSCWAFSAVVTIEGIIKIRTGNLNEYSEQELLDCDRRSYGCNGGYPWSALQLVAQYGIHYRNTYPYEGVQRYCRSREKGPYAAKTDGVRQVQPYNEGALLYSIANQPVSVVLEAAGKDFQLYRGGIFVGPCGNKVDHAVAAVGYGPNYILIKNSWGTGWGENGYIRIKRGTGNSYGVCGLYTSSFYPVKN
Experimental: as §1, §2

[9] = target: T3, Pepsin (Sus scrofa, UniProt P00791); assay: Inhibition of protease digestion of fluorescent labeled casein: pepsin; assay type: biochemical; details: pH 2, pepsin 0.01 mg/mL, pH2.0, read-out: % Inhibition of Proteolysis
T3 construct: purchased
T3 sequence (P00791 60-385): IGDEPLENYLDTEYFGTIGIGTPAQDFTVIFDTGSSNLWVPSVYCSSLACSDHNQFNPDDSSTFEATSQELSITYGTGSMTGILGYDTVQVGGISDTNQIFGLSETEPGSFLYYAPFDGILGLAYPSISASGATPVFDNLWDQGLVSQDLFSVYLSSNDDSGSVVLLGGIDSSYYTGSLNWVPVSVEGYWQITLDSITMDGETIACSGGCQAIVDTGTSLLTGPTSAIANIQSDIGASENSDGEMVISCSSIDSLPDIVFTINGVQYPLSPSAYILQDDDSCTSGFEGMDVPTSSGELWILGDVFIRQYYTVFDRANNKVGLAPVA
Experimental: as §1, §2

[10] = test system: E. coli; details: Falla and Hancock 1997; cited from earlier work
[11] = test system: Pseudomonas aeruginosa; details: Falla and Hancock 1997; cited from earlier work
[12] = test system: Candida albicans; details: Falla and Hancock 1997; cited from earlier work
[13] = test system: Staphylococcus aureus; details: Falla and Hancock 1997; cited from earlier work
[14] = test system: proteases in the intercellular fluid of plant leaves; details: cited from earlier work

With “Ile Leu Lys Gly Phe Pro Gly Phe Pro Arg Arg Lys (ILKGFPGFPRRK-NH2) [SEQ. ID NO. 8, derivative of indolicidin in which Trp residues were replaced by Phe and a Pro residue was deleted]” the “protection of fluorescent-labeled casein from chymotrypsin (in words)” value (“protection of fluorescent-labeled casein” for short) [1] was “did not have this protective effect”, the “Chymotrypsin Activity (Fluorescence Units) Mean” value (“Chymotrypsin Activity” for short) ([1]; peptide 5 μg/mL) was 385 Fluorescence Units and the “Chymotrypsin Activity” value ([1]; peptide 20 μg/mL) was 321 Fluorescence Units. The “% Germination (mean +/− sem)” value [2] was 17.3 +/− 3.5%, the “% Control” value [2] was 23% and the “antifungal activity (in words)” value [2] was “had retained antifungal activity”.
With “Ser Arg Arg Trp Pro Trp Trp Pro Trp Lys Trp Pro Leu Ile (SRRWPWWPWKWPLI-OH) [SEQ. ID NO. 5, analog of Rev4 in which an extra Ser was added to the N-terminus]” the “protection of fluorescent-labeled casein” value [1] was “protected fluorescent-labeled casein from the action of chymotrypsin”, the “Chymotrypsin Activity” value ([1]; peptide 5 μg/mL) was 162 Fluorescence Units and the “Chymotrypsin Activity” value ([1]; peptide 20 μg/mL) was 44 Fluorescence Units. For the same substance, the “% Germination (mean +/− sem)” value [2] was 6.8 +/− 6.3%, the “% Control” value [2] was 9% and the “minimum concentration required to completely inhibit spore germination for at least 48 hours” value [3] was 50 µg/mL.
With “RRWPWWPWKWPLIGGGYDPAPPPPPP [SEQ. ID NO. 6, Rev4 with a C-terminal extension of 13 amino acids]” the “protection of fluorescent-labeled casein” value [1] was “protected fluorescent-labeled casein from the action of chymotrypsin”, the “Chymotrypsin Activity” value ([1]; peptide 5 μg/mL) was 212 Fluorescence Units and the “Chymotrypsin Activity” value ([1]; peptide 20 μg/mL) was 45 Fluorescence Units. For the same substance, the “% Germination (mean +/− sem)” value [2] was 5.7 +/− 9.8%, the “% Control” value [2] was 7% and the “minimum concentration required to completely inhibit spore germination for at least 48 hours” value [3] was 23 µg/mL. The “minimum concentration required to completely inhibit spore germination for at least 48 hours” value [4] was 50 µg/mL.
For “H-GIGKFLHSAKKFGKAFVGEIMNS-OH [Magainin 2, reference compound]”, the remaining at 1 h, 1 mg/mL ([5]; pH 7.5, 15% WCE) was 10.9%, the remaining at 1 h, 1 mg/mL ([5]; pH 7.5, 30% WCE) was 0.3% and the remaining at 1 h, 1 mg/mL ([5]; pH 7.5, 90% WCE) was 0.4%. For the same substance, the “% Peptide Remaining Intact after 1 Hr.” value ([6]; 45% WCE) was 0.4%, the “% Peptide Remaining Intact after 1 Hr.” value ([6]; 60% WCE) was 0.3% and the “% Peptide Remaining Intact after 1 Hr.” value ([7]; 15% WCE) was 89.7%. The “% Peptide Remaining Intact after 1 Hr.” value ([7]; 30% WCE) was 87.6%, the “% Peptide Remaining Intact after 1 Hr.” value ([7]; 60% WCE) was 73.1% and the “% Peptide Remaining Intact after 1 Hr.” value ([7]; 90% WCE) was 56.3%.
In the case of “RRWPWWPWKWPLI-NH2 [Rev4, Arg Arg Trp Pro Trp Trp Pro Trp Lys Trp Pro Leu Ile]”, the inhibition at 2.5 µg/mL ([1]; pH 8, Rev4 2.5 μg/ml, chymotrypsin 0.01 mg/mL, pH8.0, read-out: % Inhibition of Proteolysis) is reported as 16%, the inhibition at 5 µg/mL ([1]; pH 8, Rev4 5 μg/ml, chymotrypsin 0.01 mg/mL, pH8.0, read-out: % Inhibition of Proteolysis) is reported as 42% and the inhibition at 10 µg/mL ([1]; pH 8, Rev4 10 μg/ml, chymotrypsin 0.01 mg/mL, pH8.0, read-out: % Inhibition of Proteolysis) is reported as 75%. The inhibition at 20 µg/mL ([1]; pH 8, Rev4 20 μg/ml, chymotrypsin 0.01 mg/mL, pH8.0, read-out: % Inhibition of Proteolysis) was 97%, the inhibition at 2.5 µg/mL ([8]; Rev4 2.5 μg/ml) was 29% and the inhibition at 5 µg/mL ([8]; Rev4 5 μg/ml) was 72%. It also gave an inhibition at 10 µg/mL ([8]; Rev4 10 μg/ml) of 93%, an inhibition at 20 µg/mL ([8]; Rev4 20 μg/ml) of 99% and an inhibition at 25 µg/mL ([9]; Rev4 25 μg/ml) of 3%. The inhibition at 50 µg/mL ([9]; Rev4 50 μg/ml) was 0% and the inhibition at 100 µg/mL ([9]; Rev4 100 μg/ml) was 0%.
In the case of “Ile Leu Pro Phe Lys Phe Pro Phe Phe Pro Phe Arg Arg (ILPFKFPFFPFRR-NH2) [SEQ. ID NO. 7, indolicidin in which the Trp residues were replaced with Phe]”, the “protection of fluorescent-labeled casein” value [1] is reported as “did not have this protective effect”, the “Chymotrypsin Activity” value ([1]; peptide 5 μg/mL) is reported as 386 Fluorescence Units and the “Chymotrypsin Activity” value ([1]; peptide 20 μg/mL) is reported as 385 Fluorescence Units. The “% Germination (mean +/− sem)” value [2] was 8.8 +/− 5.4%, the “% Control” value [2] was 11% and the “antifungal activity (in words)” value [2] was “had retained antifungal activity”. The “minimum concentration required to completely inhibit spore germination for at least 48 hours” value [3] was 50 µg/mL and the “minimum concentration required to completely inhibit spore germination for at least 48 hours” value [4] was 100 µg/mL.
In the case of “ILKKWPWWPWRR [CP-11, synthetic peptide based on indolicidin (Falla and Hancock)]”, the “activity against E. coli relative to indolicidin (in words)” value [10] is listed as “better activity”, the “activity against Pseudomonas aeruginosa relative to indolicidin (in words)” value [11] is listed as “better activity” and the “activity against Candida albicans relative to indolicidin (in words)” value [12] is listed as “better activity”. The “activity against Staphylococcus aureus relative to indolicidin (in words)” value [13] was “reduced activity”.
For “cecropin B: antimicrobial peptide cecropin B (KWKVFKKIEKMGRNIRNGIVKAGPAIAVLGEAKAL; ends and bridges not checked; UniProt P01508 27-61, looked up)”, the “degradation / stability against proteases of plant intercellular fluid (in words)” value [14] is listed as “rapidly degraded”.
